“Also recorded” adds a separate entry of the source.
Experiments:
HLA-DR1 (DRB1*0101) = biological target: T1, HLA-DR1 (DRB1*0101) (Homo sapiens, UniProt P01903+P01911, A100R/D57E/F55L/F60I/F76Y/I96L/L162R/M171V/P40L/Q125E/R42F/V115G/Y59C); test: HLA-DR1-restricted T-cell response after catalysed loading of 721.221 cells (EvHA/X5, hCII19.3 T-cells); assay type: cell-based; conditions: HA306-318 (EvHA/X5) or CO260-273 (hCII19.3) loaded onto 721.221 cells
T1 construct: HLA-DR-expressing 721.221 cells; endogenous in cells; host or cells: 721.221 cells
Description: In the present comparison test, the enhancement of the T-cell response by catalysis of the loading of HLA-expressing cells was investigated. […] Either HA306-318 (see also FIG. 3, left-hand panel) or CO260-273 (see also FIG. 3, right-hand panel) was used as peptide antigen. After the loading, the cells were washed and used to stimulate EvHA/X5 and hCII19.3 cells, respectively.
In order to investigate the catalysis of a HLA-DR1 (DRB1*0101)-restricted T-cell response by various catalytically active adamantyl compounds, dose-activity curves of the catalysis of a HLA-DR1 (DRB1*0101)-restricted T-cell response were prepared. The experiment was carried out analogously to Comparison Experiment 3.3, the peptide antigen HA306-318 being loaded onto 721.221 cells in order thereby to stimulate EvHA/X5 T-cells. […] Because the position of the dose-activity curves is evidently also determined by the side chain, a modulating activity can be attributed thereto.

[1] = biological target: HLA-DR2 (DRB1*1501; β86V) wild-type molecule (Homo sapiens, UniProt P01903+P01911); test: Catalysis of peptide binding to HLA-DR2 wild-type molecule on fibroblast cells
Description: The test was carried out as described under Comparison Test 3.3.

[2] = test system: DCs from HLA-DR1 (DRB1*0101)-transgenic mice; test: Loading of dendritic cells with HA306-318 and DC-mediated T-cell response; assay type: cell-based
Description: Dendritic cells ([…]) are one of the most important sub-groups of “professional” antigen-presenting cells. Therefore, in the present example, DCs from HLA-DR1 (DRB1*0101)-transgenic mice were used, the DCs being loaded for 4 hours with biotinylated HA306-318 peptide. Then, in order to determine the peptide load, the cells were stained with streptavidin-APC (SA-APC) and also with anti-HLA-DR and analysed by continuous-flow cytometry (FIG. 14A).

[3] = biological target: T2, soluble HLA-DR1 (DRA1*0101, DRB1*0101) (Homo sapiens, UniProt P01903+P01911, A100R/D57E/F55L/F60I/F76Y/I96L/L162R/M171V/P40L/Q125E/R42F/V115G/Y59C); test: Loading of empty soluble HLA-DR1 with biotinylated HA306-318 peptide, sandwich ELISA; assay type: biochemical
T2 construct: shortened α- and […]-chains without the cytoplasmatic and transmembrane portion of the MHC molecule; made in house; host or cells: S2 insect cells
Description: In order to monitor catalysis of the loading of HLA-DR molecules by compounds of formulae I, IA, II, III and IV1 to IV3, empty, soluble DR molecules were incubated with biotinylated, high-affinity peptide, and these were then detected in a sandwich ELISA for the MHC complexes.
All the batches were then adjusted to a final volume of 10 μl with 2% BSA-PO4^3− buffer (in the case of HLA-DR1 only with PO4^3− buffer). The reaction was started by incubation at 37° C. in a thermocycler. After 40 minutes, the incubation was terminated and the loading reaction was stopped by storage on ice and addition of 50 μl of ice-cold 1% BSA-PBS.
The detection of bound peptide was carried out by means of a sandwich ELISA. […] Between these steps, the plate was washed twice with PBS-0.05% Tween with the aid of a PW plate-washing device (Tecan Industries) and, before filling with fresh solution, all remaining liquid residues were removed by tapping on Scott®Natura paper towels (Hakle-Kimberly Deutschland GmbH). After blocking of non-specific binding sites, the plate was washed three times and filled with 50 μl/well of 1% BSA-PBS. 2×25 μl per reaction batch were transferred to the plate as double values and were carefully mixed thereon (total volume per well: 75 μl). From each filled series, a further 25 μl/well were then again titrated on the plate in a series of two-stage dilutions (final volume per well: 50 μl). The plates so filled were then stored for 2 hours at 4° C. under stationary conditions. Each plate was then washed six times as described above and filled with 80 μl/well of Eu^3+-streptavidin staining solution (europium-streptavidin stock solution diluted 1:10,000 with 1% BSA-PBS) and incubated for 30 minutes at room temperature (RT). After washing for a further eight times, 100 μl/well of fluorescence-activated solution (enhancer) were then added and the signal was measured by means of a Victor^2-multilabelcounter (Wallac Oy) at an excitation wavelength of 340 nm and an emission wavelength of 615 nm in time-resolving mode.
The following experiment was therefore carried out. One catalyst in a fixed concentration of 0.05 mM was introduced into each of a number of batches for loading HLA-DR1 with HA-biot. The same concentration of a second catalyst was then added to each batch. As controls, 1×1% DMSO was added and, as negative control, a reaction mixture was prepared with 2×1% DMSO. The reaction mixtures were then incubated for 40 minutes as already described and the load was measured in a sandwich ELISA.
The resulting load was then determined in an ELISA using biotinylated peptide (see FIG. 1).
The amount of peptide/MHC complexes formed within this time was then determined by means of an ELISA assay (capture antibody: anti-HLA-DR; detection: fluorescent-labelled streptavidin). The activities of the individual compounds were grouped on the basis of the dose/activity curves obtained thereby.

HLADR2 (DRB1*1501) = biological target: T3, HLADR2 (DRB1*1501) (Homo sapiens, UniProt P01903+P01911); test: HLA-DR2-restricted T-cell response (08073 T-cells, MGAR cells) after catalysed loading; assay type: cell-based; conditions: MBP86-100, 08073 T-cells
T3 construct: endogenous in cells; host or cells: MGAR cells
Description: (§1) For evaluation, dose-activity curves of a HLA-DR4-restricted (FIG. 4, left-hand panel) and a HLA-DR2-restricted T-cell response (FIG. 4, right-hand panel) were prepared.

[4] = test system: HLA-DR molecules with a deep or flat P1 pocket (β86G and β86V); test: T-cell assays on HLA-DR molecules with a deep or flat P1 pocket; assay type: cell-based, human; conditions: dose-activity curves
Description: (§2) In the following, the catalysis of HLA loading by pCP was determined for the purposes of comparison. […] These dose-activity curves show the activity of the two catalysts on HLA-DR molecules with a deep or flat P1 pocket {β86G and β86V} as well as on the mouse MHC class II molecules H2-Ek and H2-Ak.

HLA-DR4 (DRB1*0401) = HLA-DR4 (DRB1*0401) (Homo sapiens, UniProt P01903+P01911, A100K/A169T/F76Y/I96L/K127E/L162R/M171V/N62H/P40V/Q125Y/R42H/S133A/S149N/S66Y/V115G/V209L/W38E); conditions: HA306-318, 8475/94 T-cells
Description: as §1

H2-E^k = test: T-cell assay on mouse MHC class II molecule H2-E; assay type: cell-based; conditions: T-cell assays
Description: as §2

H2-A^k = H2-A^k (Mus musculus, UniProt P01910+P06343); test: T-cell assay on mouse MHC class II molecule H2-A; assay type: cell-based; conditions: T-cell assays
Description: as §2

Chain of H2-A^k (P01910 24-256): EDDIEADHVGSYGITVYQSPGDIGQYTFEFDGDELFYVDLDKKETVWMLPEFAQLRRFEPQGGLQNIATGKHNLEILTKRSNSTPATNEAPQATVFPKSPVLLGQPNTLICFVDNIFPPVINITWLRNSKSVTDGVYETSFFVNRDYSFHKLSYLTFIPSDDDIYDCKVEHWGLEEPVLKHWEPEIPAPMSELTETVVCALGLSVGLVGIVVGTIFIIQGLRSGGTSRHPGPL
Chain of H2-A^k (P06343 28-263): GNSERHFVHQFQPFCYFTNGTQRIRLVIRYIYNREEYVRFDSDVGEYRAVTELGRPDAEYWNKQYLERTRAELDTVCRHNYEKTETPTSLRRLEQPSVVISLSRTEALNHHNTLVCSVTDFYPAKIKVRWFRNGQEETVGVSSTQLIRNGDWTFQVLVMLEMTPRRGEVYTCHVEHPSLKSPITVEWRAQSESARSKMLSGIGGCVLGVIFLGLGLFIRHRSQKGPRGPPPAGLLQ

immune response of HLA-DR1-restricted T-cells (HLA-DR1 (DRB1*0101))	catalysis of the binding of MBP86-100 to HLA-DR2 wild-type molecule [1]	catalytic activity in the ELISA [3]	Structure (SMILES)	HA306-318 peptide concentration that triggers the T-cell response reached at 100 ng/ml without catalyst ([2]; 250 μM catalyst)	peptide signal on the surface of the DCs ([2]; 250 μM, 4 hours, biotinylated HA306-318)	strength of T-cell responses vs DCs loaded without catalyst ([2]; DCs loaded with antigen in the presence of catalyst)	HLA-DR2-restricted T-cell response (HLADR2 (DRB1*1501))	activity on HLA-DR molecules with deep or flat P1 pocket [4]	HLA-DR4-restricted T-cell response (HLA-DR4 (DRB1*0401))	effect on H2-E molecules (H2-E^k)	effect on H2-A molecules (H2-A^k)
markedly enhanced	unable to effect catalysis	substantially greater catalytic activity	OCCC12CC3CC(CC(C3)C1)C2 [I 1, 2-(1-adamantyl)-ethanol]	less than 10 ng/ml	markedly stronger peptide signal	up to 15 times	unable to effect catalysis	–	–	–	–
–	–	–	Oc1ccc(Cl)cc1 [pCP, p-chlorophenol]	–	–	–	enhancing effect on all the HLA-DR molecules investigated	no dependence on the […]86 dimorphism; also recorded: independent of the depth of the P1 pocket	enhancing effect on all the HLA-DR molecules investigated	no effect	no effect

From US20070280957A1, “Change of the Load State of Mhc Molecules” (priority 2004, published 2007)
